Laboratory results published in ChEMBL document CHEMBL3603804, “Cyclin dependent kinase (CDK) inhibitors as anticancer drugs” (Bioorg Med Chem Lett, 2015).
Blank lines part the entries; values can stand above or below the molecule they belong to.

Columns and labels:
[1] = molecular target: T1, Cyclin-dependent kinase 2/cyclin A (Homo sapiens, UniProt P24941); assay: Competitive inhibition of human CDK2/cyclinA using PKTPKKAKKL as substrate in presence of ATP; type: protein-complex assay
[2] = Chemical stability of the compound in phosphate buffer assessed as remaining compound at pH 1.2 at 37 degC after 3 hrs; type: physicochemical; conditions: read-out: Stability
[3] = molecular target: T2, Cyclin-dependent kinase 4/cyclin D1 (Homo sapiens, UniProt P11802); assay: Inhibition of CDK4/cyclin D1 (unknown origin) expressed in baculovirus infected insect Sf9 cells assessed as inhibition of GST-tagged Rb phosphorylation after 30 mins in presence of [33P]-ATP
T2 sequence (P11802 whole entry): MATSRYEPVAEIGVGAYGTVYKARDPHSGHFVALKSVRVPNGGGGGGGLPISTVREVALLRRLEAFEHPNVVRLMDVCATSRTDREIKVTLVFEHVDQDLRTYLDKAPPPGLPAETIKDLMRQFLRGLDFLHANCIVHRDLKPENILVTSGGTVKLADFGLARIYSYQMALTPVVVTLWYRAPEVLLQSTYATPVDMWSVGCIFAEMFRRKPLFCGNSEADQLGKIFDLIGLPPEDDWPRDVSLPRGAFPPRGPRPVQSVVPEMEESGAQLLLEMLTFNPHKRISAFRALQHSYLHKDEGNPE
T2 sequence (P24385 whole entry, further chain): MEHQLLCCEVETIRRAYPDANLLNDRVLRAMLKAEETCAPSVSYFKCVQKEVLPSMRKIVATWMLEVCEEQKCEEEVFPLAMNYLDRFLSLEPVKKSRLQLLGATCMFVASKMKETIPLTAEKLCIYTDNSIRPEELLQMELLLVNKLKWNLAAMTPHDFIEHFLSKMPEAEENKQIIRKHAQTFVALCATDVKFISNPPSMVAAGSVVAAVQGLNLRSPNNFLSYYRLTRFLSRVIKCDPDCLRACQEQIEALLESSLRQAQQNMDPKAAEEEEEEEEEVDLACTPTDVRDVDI

[4] = molecular target: T3, Cyclin-dependent kinase 2/cyclin E1 (Homo sapiens, UniProt P24941); assay: Inhibition of CDK2/cyclin E (unknown origin) expressed in baculovirus infected insect Sf9 cells assessed as inhibition of GST-tagged Rb phosphorylation after 30 mins in presence of [33P]-ATP
HCT-116 = assay: Cytotoxicity against human HCT116 cells assessed as growth inhibition after 3 days by MTT assay; type: functional, cell-based; conditions: HCT-116, 72 h
MDA-MB-231 = assay: Cytotoxicity against human MDA-MB-231 cells; type: functional, cell-based
[5] = molecular target: T1, Cyclin-dependent kinase 2/cyclin A; assay: Non-competitive inhibition of human CDK2/cyclinA using PKTPKKAKKL as substrate in presence of ATP; type: protein-complex assay
Jurkat = assay: Cytotoxicity against human Jurkat cells assessed as cell viability after 72 hrs by resazurin assay; type: functional, cell-based
MCF7 = assay: Cytotoxicity against human MCF7 cells assessed as growth inhibition after 96 hrs; type: functional, cell-based; conditions: MCF7, 96 h
[6] = molecular target: Vascular endothelial growth factor receptor 2 (Homo sapiens, UniProt P35968); assay: Inhibition of VEGFR2 (unknown origin)
Sequence of Vascular endothelial growth factor receptor 2 (P35968 whole entry, the tested form may be a part): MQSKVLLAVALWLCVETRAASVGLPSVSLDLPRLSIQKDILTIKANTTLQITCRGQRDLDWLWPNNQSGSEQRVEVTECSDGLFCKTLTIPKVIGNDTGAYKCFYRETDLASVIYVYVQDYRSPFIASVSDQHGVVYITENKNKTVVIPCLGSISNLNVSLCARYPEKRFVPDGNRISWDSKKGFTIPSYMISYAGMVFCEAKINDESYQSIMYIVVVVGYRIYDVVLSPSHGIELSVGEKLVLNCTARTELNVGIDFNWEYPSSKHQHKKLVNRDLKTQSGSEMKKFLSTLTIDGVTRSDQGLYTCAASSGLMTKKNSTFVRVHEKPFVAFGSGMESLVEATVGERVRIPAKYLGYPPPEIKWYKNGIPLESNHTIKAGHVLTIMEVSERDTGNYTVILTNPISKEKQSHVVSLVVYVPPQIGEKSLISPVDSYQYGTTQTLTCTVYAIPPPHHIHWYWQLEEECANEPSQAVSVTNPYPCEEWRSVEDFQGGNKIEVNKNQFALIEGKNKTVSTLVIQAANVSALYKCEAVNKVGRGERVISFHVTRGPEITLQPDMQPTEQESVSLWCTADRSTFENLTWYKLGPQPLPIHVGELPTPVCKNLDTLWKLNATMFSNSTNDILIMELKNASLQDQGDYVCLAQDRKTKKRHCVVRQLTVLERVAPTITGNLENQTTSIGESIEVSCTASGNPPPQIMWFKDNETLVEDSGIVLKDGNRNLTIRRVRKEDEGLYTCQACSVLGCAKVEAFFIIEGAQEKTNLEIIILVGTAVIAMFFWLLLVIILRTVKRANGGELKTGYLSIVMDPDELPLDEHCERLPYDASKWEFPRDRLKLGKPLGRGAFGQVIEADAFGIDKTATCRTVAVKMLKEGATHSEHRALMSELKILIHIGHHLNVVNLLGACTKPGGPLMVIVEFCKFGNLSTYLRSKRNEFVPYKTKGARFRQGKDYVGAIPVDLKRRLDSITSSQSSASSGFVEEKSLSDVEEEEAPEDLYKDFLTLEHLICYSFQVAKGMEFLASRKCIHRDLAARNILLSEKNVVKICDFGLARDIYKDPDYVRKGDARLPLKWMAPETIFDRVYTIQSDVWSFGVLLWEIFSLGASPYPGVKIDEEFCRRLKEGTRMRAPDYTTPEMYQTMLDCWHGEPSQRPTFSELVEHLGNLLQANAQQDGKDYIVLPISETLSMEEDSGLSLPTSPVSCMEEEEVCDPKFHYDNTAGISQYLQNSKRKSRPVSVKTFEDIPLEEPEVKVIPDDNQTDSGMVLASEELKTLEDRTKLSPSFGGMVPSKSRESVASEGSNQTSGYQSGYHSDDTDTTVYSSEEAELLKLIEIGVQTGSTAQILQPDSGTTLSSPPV

[7] = molecular target: T4, Cyclin-dependent kinase 1/cyclin B1 (Homo sapiens, UniProt P06493); assay: Inhibition of recombinant CDK1/GST-fused cyclin B (unknown origin) expressed in baculovirus infected insect Sf9 cells by substrate phosphorylation assay in presence of [33P]-gamma adenosine triphosphate
T4 sequence (P06493 whole entry, the tested form may be a part): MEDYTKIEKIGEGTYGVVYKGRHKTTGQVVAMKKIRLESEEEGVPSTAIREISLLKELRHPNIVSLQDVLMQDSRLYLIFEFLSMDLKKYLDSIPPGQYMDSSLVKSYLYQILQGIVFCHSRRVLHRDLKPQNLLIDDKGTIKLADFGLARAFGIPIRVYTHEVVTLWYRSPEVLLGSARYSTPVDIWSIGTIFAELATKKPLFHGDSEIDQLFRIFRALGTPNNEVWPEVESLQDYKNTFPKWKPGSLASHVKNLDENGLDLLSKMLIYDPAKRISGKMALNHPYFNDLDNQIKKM
T4 sequence (P14635 whole entry, further chain, the tested form may be a part): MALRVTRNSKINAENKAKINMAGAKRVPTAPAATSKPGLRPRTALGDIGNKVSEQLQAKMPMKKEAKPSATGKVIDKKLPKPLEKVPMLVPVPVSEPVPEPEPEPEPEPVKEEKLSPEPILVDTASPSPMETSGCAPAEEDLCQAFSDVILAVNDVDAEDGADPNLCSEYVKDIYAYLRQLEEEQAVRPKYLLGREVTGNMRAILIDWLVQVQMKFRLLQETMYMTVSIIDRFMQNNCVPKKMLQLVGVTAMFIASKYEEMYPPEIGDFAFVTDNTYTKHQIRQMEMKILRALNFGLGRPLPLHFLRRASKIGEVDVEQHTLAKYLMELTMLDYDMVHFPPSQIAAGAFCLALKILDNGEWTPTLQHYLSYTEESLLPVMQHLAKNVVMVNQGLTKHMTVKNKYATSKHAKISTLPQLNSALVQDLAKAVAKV

[8] = molecular target: T3, Cyclin-dependent kinase 2/cyclin E1; assay: Inhibition of recombinant CDK2/GST-fused cyclin E (unknown origin) expressed in baculovirus infected insect Sf9 cells by substrate phosphorylation assay in presence of [33P]-gamma adenosine triphosphate
Carbonic anhydrase 2 = Carbonic anhydrase 2 (Homo sapiens, UniProt P00918); assay: Inhibition of carbonic anhydrase-2 (unknown origin)
[9] = molecular target: T5, Cyclin-dependent kinase 4/6 (Homo sapiens, UniProt P11802+Q00534); assay: Inhibition of CDK4/6 in human COLO205 cells assessed as inhibition of Rb phosphorylation after 24 hrs by propidium iodide staining-based laser-scanning fluorescence microplate cytometric analysis; type: cell-based; conditions: colo 205
T5 sequence (P11802 whole entry, looked up): as the sequence (P11802 whole entry) above
T5 sequence (Q00534 whole entry, looked up): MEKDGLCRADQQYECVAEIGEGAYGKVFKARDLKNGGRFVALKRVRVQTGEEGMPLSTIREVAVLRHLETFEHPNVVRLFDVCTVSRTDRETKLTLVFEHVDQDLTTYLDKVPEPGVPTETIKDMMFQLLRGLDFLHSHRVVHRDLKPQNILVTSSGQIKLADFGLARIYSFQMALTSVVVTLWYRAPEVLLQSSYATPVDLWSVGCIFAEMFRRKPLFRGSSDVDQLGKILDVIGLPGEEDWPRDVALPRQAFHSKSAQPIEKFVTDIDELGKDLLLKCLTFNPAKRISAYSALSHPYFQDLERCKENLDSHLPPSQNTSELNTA

[10] = molecular target: T4, Cyclin-dependent kinase 1/cyclin B1; type: protein-complex assay
[11] = molecular target: T5, Cyclin-dependent kinase 4/6; assay: Inhibition of CDK4/6 in human COLO205 cells assessed as maximum cell cycle arrest at G1 phase after 24 hrs by propidium iodide staining-based flow cytometric analysis; conditions: COLO 205
[12] = molecular target: T2, Cyclin-dependent kinase 4/cyclin D1; assay: Inhibition of human CDK4/cyclin D1 expressed in insect cells assessed as phosphorylation of CTRF after 50 mins by microplate scintillation counter
MDA-MB-468 = assay: Antiproliferative activity against Rb-negative human MDA-MB-468 cells assessed as inhibition of [14C]-thymidine incorporation into DNA preincubated for 24 hrs followed by [14C]-thymidine addition measured after 72 hrs by beta plate counting analysis; type: cell-based

SMILES: N[S+]([O-])c1ccc(/N=N/c2ccc(O)[nH]c2=O)cc1 (stereo not drawn)
IC50 [1]: 45000 nM

SMILES: CN(C)C/C=C/C(=O)Nc1ccc(C(=O)Nc2cccc(Nc3ncc(Cl)c(-c4c[nH]c5ccccc45)n3)c2)cc1
IC50 (Jurkat): 50 nM

SMILES: C[C@@H](O)[C@@H](C)Oc1nc(Nc2ccc(S(=N)(=O)C3CC3)cc2)ncc1C(F)(F)F (stereo partly drawn) [RONICICLIB]
IC50 (MCF7): 15 nM

SMILES: C[C@H](CO)Nc1nc(Nc2ccc(S(N)(=O)=O)cc2)ncc1Br
IC50 (MCF7): 266 nM
IC50 (Carbonic anhydrase 2): 514 nM
IC50 [6]: 34 nM
IC50 [7]: 500 nM
IC50 [8]: 4 nM

SMILES: Cc1nc2ccc(-c3ccnc(Nc4ccc(N5CCNCC5)cn4)n3)cc2n1C(C)C
IC50 [9]: 42 nM
IC50 [10]: 222 nM
INH [11]: 0.2 µM
IC50 [12]: 2 nM

SMILES: CC[S@@](=N)(=O)c1ccc(Nc2ncc(Br)c(N[C@H](C)[C@@H](C)O)n2)cc1
IC50 (MCF7): 44 nM
IC50 (Carbonic anhydrase 2): > 10000 nM
IC50 [6]: 32 nM
IC50 [7]: 3 nM
IC50 [8]: 2 nM

SMILES: CC(=O)c1c(C)c2cnc(Nc3ccc(N4CCNCC4)cn3)nc2n(C2CCCC2)c1=O [PALBOCICLIB]
IC50 (MDA-MB-468): > 3000 nM

SMILES: COc1ccc(Nc2nccc(-c3ccc4nc(C)n(C(C)C)c4c3)n2)cc1
IC50 [10]: 4 nM
IC50 [12]: 4 nM

Continued, in another order:

remaining at 3 h [2]: 81%
IC50 [3]: 19 nM
IC50 [4]: 830 nM
SMILES: CC(N)c1csc(/C=N/Nc2ncnc3sc(C(C)(C)C)cc23)n1 (stereo not drawn)
IC50 (HCT-116): 177 nM

IC50 [5]: 27000 nM
SMILES: CC(Nc1cc(N2CCOCC2)ccc1[N+](=O)[O-])C12CC3CC(CC(C3)C1)C2 (stereo not drawn)
IC50 (MDA-MB-231): > 50000 nM

IC50 [6]: 122 nM
IC50 [7]: 4 nM
IC50 [8]: 9 nM
SMILES: C[C@@H](O)[C@@H](C)Oc1nc(Nc2ccc([S+](N)[O-])cc2)ncc1Br (stereo partly drawn)
IC50 (MCF7): 48 nM

IC50 [5]: 71000 nM
SMILES: CC1=C(C(=O)OC2CCCCC2)C(c2ccc([N+](=O)[O-])cc2)C2=C(CC(C)(C)CC2=O)N1 (stereo not drawn)
IC50 (MDA-MB-231): 4000 nM

IC50 [9]: 89 nM
IC50 [10]: 1010 nM
INH [11]: 2.2 µM
IC50 [12]: 2 nM
SMILES: Cc1nc2ccc(-c3ccnc(Nc4ccc(CN5CCN(C(C)C)CC5)cn4)n3)cc2n1C(C)C

IC50 (Carbonic anhydrase 2): > 10000 nM
SMILES: C[C@@H](O)[C@@H](C)Oc1nc(Nc2ccc([S@](=N)(=O)C3CC3)cc2)ncc1C(F)(F)F [RONICICLIB]

remaining at 3 h [2]: 79%
IC50 [3]: 41 nM
IC50 [4]: 200 nM
SMILES: CC(C)(C)c1cc2c(N/N=C/c3nccs3)ncnc2s1
IC50 (HCT-116): 419 nM

IC50 (Carbonic anhydrase 2): 403 nM
IC50 [6]: 59 nM
IC50 [7]: 10 nM
IC50 [8]: 10 nM
SMILES: C[C@@H](O)[C@@H](C)Nc1nc(Nc2ccc([S+](N)[O-])cc2)ncc1Br (stereo partly drawn)
IC50 (MCF7): 30 nM

remaining at 3 h [2]: 83%
IC50 [3]: 22 nM
IC50 [4]: 880 nM
SMILES: CC(N)c1csc(/C=N/Nc2ncnc3sc(C(C)C(C)C)cc23)n1 (stereo not drawn)
IC50 (HCT-116): 315 nM

IC50 [7]: 100 nM
IC50 [8]: 100 nM
SMILES: C#CCNc1nc(Nc2ccccc2)ncc1Br
IC50 (MCF7): 4000 nM
